Measurements: US8802597B2, “Herbicidal pyrimidines” (E I du Pont de Nemours and Company, priority 2003, dated 2014)

Assays:
Type in all cases: in vivo
[1] = test system: Surinam grass (Brachiaria decumbens); assay: Test C pre/postemergence; conditions: for Plant response rating (scale of 0 to 100), Surinam Grass / Surinam Grass plant response rating: Postemergence; for Surinam Grass plant response rating: scale 0 to 100 (0 no effect, 100 complete control); for Plant response rating, Surinam Grass: Preemergence
Method in brief: (§1)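 Test compounds, formulated in a non-phytotoxic solvent mix with surfactant, were applied to freshly planted seeds and, at the same time, to emerged plants at 1- to 4-leaf stage (2 to 18 cm). After 12 to 14 days in the greenhouse, response was scored visually versus controls, 0 = no effect, 100 = complete control.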

[2] = test system: common (oilseed) sunflower (Helianthus annuus); assay: Test C pre/postemergence; conditions: Preemergence
Method in brief: as §1

[3] = test system: common ragweed (Ambrosia elatior); assay: Test C pre/postemergence; conditions: for Plant response rating (scale of 0 to 100), Ragweed / Ragweed plant response rating: Postemergence; for Ragweed plant response rating: scale 0 to 100 (0 no effect, 100 complete control); for Plant response rating, Ragweed: Preemergence
Method in brief: as §1

[4] = test system: giant foxtail (Setaria faberii); assay: Test C pre/postemergence; conditions: for Plant response rating (scale of 0 to 100), Foxtail, Giant / Foxtail, Giant plant response rating: Postemergence; for Foxtail, Giant plant response rating: scale 0 to 100 (0 no effect, 100 complete control); for Plant response rating, Foxtail, Giant: Preemergence
Method in brief: as §1

[5] = test system: johnsongrass (Sorghum halepense); assay: Test C pre/postemergence; conditions: for Plant response rating (scale of 0 to 100), Johnsongrass / Johnsongrass plant response rating: Postemergence; for Johnsongrass plant response rating: scale 0 to 100 (0 no effect, 100 complete control); for Plant response rating, Johnsongrass: Preemergence
Method in brief: as §1

kochia (Kochia scoparia) = assay: Test C pre/postemergence; conditions: for Plant response rating (scale of 0 to 100), Kochia / Kochia plant response rating: Postemergence; for Kochia plant response rating: scale 0 to 100 (0 no effect, 100 complete control); for Plant response rating, Kochia: Preemergence
Method in brief: as §1

[6] = test system: morningglory (Ipomoea coccinea); assay: Test C pre/postemergence; conditions: for Plant response rating (scale of 0 to 100), Morningglory / Morningglory plant response rating: Postemergence; for Morningglory plant response rating: scale 0 to 100 (0 no effect, 100 complete control); for Plant response rating, Morningglory: Preemergence
Method in brief: as §1

[7] = test system: pigweed (Amaranthus retroflexus); assay: Test C pre/postemergence; conditions: for Plant response rating (scale of 0 to 100), Pigweed / Pigweed plant response rating: Postemergence; for Pigweed plant response rating: scale 0 to 100 (0 no effect, 100 complete control); for Plant response rating, Pigweed: Preemergence
Method in brief: as §1

soybean (Glycine max) = assay: Test C pre/postemergence; conditions: for Plant response rating (scale of 0 to 100), Soybean / Soybean plant response rating: Postemergence; for Soybean plant response rating: scale 0 to 100 (0 no effect, 100 complete control)
Method in brief: as §1

[8] = test system: woolly cupgrass (Eriochloa villosa); assay: Test C pre/postemergence; conditions: for Plant response rating (scale of 0 to 100), Cupgrass, Woolly / Cupgrass, Woolly plant response rating: Postemergence; for Cupgrass, Woolly plant response rating: scale 0 to 100 (0 no effect, 100 complete control); for Plant response rating, Cupgrass, Woolly: Preemergence
Method in brief: as §1

[9] = test system: yellow nutsedge (Cyperus esculentus); assay: Test C pre/postemergence; conditions: for Plant response rating (scale of 0 to 100), Nutsedge, Yellow / Nutsedge, Yellow plant response rating: Postemergence; for Nutsedge, Yellow plant response rating: scale 0 to 100 (0 no effect, 100 complete control); for Plant response rating, Nutsedge, Yellow: Preemergence, scale 0 to 100, 0 no effect, 100 complete control
Method in brief: as §1

[10] = test system: chickweed (Stellaria media); assay: Test C postemergence
Method in brief: as §1

[11] = 16 g ai/ha, scale 0 to 100, 0 no effect, 100 complete control
[12] = 31 g ai/ha, scale 0 to 100, 0 no effect, 100 complete control
[13] = 62 g ai/ha, scale 0 to 100, 0 no effect, 100 complete control

Question: What does the source list for `COCc1nc(C2CC2)nc(N)c1Br` [Compound 11]?
Answer: Plant response rating (scale of 0 to 100), Surinam Grass ([1]; 16 g ai/ha): 0; Plant response rating (scale of 0 to 100), Surinam Grass ([1]; 31 g ai/ha): 0; Surinam Grass plant response rating ([1]; 62 g ai/ha): 0; Surinam Grass plant response rating ([1]; 125 g ai/ha): 0; Plant response rating, Surinam Grass [1, 11]: 0; Plant response rating, Surinam Grass [1, 12]: 0; Plant response rating, Surinam Grass [1, 13]: 100; Plant response rating, Surinam Grass ([1]; 125 g ai/ha, scale 0 to 100): 100; Plant response rating, Sunflower [2, 11]: 0; Plant response rating, Sunflower [2, 12]: 0; Plant response rating, Sunflower [2, 13]: 0; Plant response rating, Sunflower ([2]; 125 g ai/ha, scale 0 to 100): 0; Plant response rating (scale of 0 to 100), Ragweed ([3]; 16 g ai/ha): 15; Plant response rating (scale of 0 to 100), Ragweed ([3]; 31 g ai/ha): 45; Ragweed plant response rating ([3]; 62 g ai/ha): 65; Ragweed plant response rating ([3]; 125 g ai/ha): 75; Plant response rating, Ragweed [3, 11]: 0; Plant response rating, Ragweed [3, 12]: 0; Plant response rating, Ragweed [3, 13]: 20; Plant response rating, Ragweed ([3]; 125 g ai/ha, scale 0 to 100): 45; Plant response rating (scale of 0 to 100), Foxtail, Giant ([4]; 16 g ai/ha): 0; Plant response rating (scale of 0 to 100), Foxtail, Giant ([4]; 31 g ai/ha): 0; Foxtail, Giant plant response rating ([4]; 62 g ai/ha): 0; Foxtail, Giant plant response rating ([4]; 125 g ai/ha): 0; Plant response rating, Foxtail, Giant [4, 11]: 0; Plant response rating, Foxtail, Giant [4, 12]: 0; Plant response rating, Foxtail, Giant [4, 13]: 0; Plant response rating, Foxtail, Giant ([4]; 125 g ai/ha, scale 0 to 100): 20; Plant response rating (scale of 0 to 100), Johnsongrass ([5]; 16 g ai/ha): 0; Plant response rating (scale of 0 to 100), Johnsongrass ([5]; 31 g ai/ha): 0; Johnsongrass plant response rating ([5]; 62 g ai/ha): 0; Johnsongrass plant response rating ([5]; 125 g ai/ha): 0; Plant response rating, Johnsongrass [5, 11]: 0; Plant response rating, Johnsongrass [5, 12]: 0; Plant response rating, Johnsongrass [5, 13]: 0; Plant response rating, Johnsongrass ([5]; 125 g ai/ha, scale 0 to 100): 75; Plant response rating (scale of 0 to 100), Kochia (kochia (Kochia scoparia); 16 g ai/ha): 40; Plant response rating (scale of 0 to 100), Kochia (kochia (Kochia scoparia); 31 g ai/ha): 65; Kochia plant response rating (kochia (Kochia scoparia); 62 g ai/ha): 75; Kochia plant response rating (kochia (Kochia scoparia); 125 g ai/ha): 90; Plant response rating, Kochia (kochia (Kochia scoparia); [11]): 0; Plant response rating, Kochia (kochia (Kochia scoparia); [12]): 0; Plant response rating, Kochia (kochia (Kochia scoparia); [13]): 0; Plant response rating, Kochia (kochia (Kochia scoparia); 125 g ai/ha, scale 0 to 100): 60; Plant response rating (scale of 0 to 100), Morningglory ([6]; 16 g ai/ha): 0; Plant response rating (scale of 0 to 100), Morningglory ([6]; 31 g ai/ha): 0; Morningglory plant response rating ([6]; 62 g ai/ha): 0; Morningglory plant response rating ([6]; 125 g ai/ha): 0; Plant response rating, Morningglory [6, 11]: 0; Plant response rating, Morningglory [6, 12]: 0; Plant response rating, Morningglory [6, 13]: 0; Plant response rating, Morningglory ([6]; 125 g ai/ha, scale 0 to 100): 0; Plant response rating (scale of 0 to 100), Pigweed ([7]; 16 g ai/ha): 60; Plant response rating (scale of 0 to 100), Pigweed ([7]; 31 g ai/ha): 70; Pigweed plant response rating ([7]; 62 g ai/ha): 80; Pigweed plant response rating ([7]; 125 g ai/ha): 90; Plant response rating, Pigweed [7, 11]: 0; Plant response rating, Pigweed [7, 12]: 0; Plant response rating, Pigweed [7, 13]: 65; Plant response rating, Pigweed ([7]; 125 g ai/ha, scale 0 to 100): 90; Plant response rating (scale of 0 to 100), Soybean (soybean (Glycine max); 16 g ai/ha): 45; Plant response rating (scale of 0 to 100), Soybean (soybean (Glycine max); 31 g ai/ha): 60; Soybean plant response rating (soybean (Glycine max); 62 g ai/ha): 80; Soybean plant response rating (soybean (Glycine max); 125 g ai/ha): 95; Plant response rating, Soybean (soybean (Glycine max); Preemergence, 125 g ai/ha, scale 0 to 100): 55; Plant response rating (scale of 0 to 100), Cupgrass, Woolly ([8]; 16 g ai/ha): 0; Plant response rating (scale of 0 to 100), Cupgrass, Woolly ([8]; 31 g ai/ha): 0; Cupgrass, Woolly plant response rating ([8]; 62 g ai/ha): 0; Cupgrass, Woolly plant response rating ([8]; 125 g ai/ha): 0; Plant response rating, Cupgrass, Woolly [8, 11]: 0; Plant response rating, Cupgrass, Woolly [8, 12]: 0; Plant response rating, Cupgrass, Woolly [8, 13]: 0; Plant response rating, Cupgrass, Woolly ([8]; 125 g ai/ha, scale 0 to 100): 0; Plant response rating (scale of 0 to 100), Nutsedge, Yellow ([9]; 16 g ai/ha): 0; Plant response rating (scale of 0 to 100), Nutsedge, Yellow ([9]; 31 g ai/ha): 0; Nutsedge, Yellow plant response rating ([9]; 62 g ai/ha): 0; Nutsedge, Yellow plant response rating ([9]; 125 g ai/ha): 0; Plant response rating, Nutsedge, Yellow ([9]; 16 g ai/ha): 0; Plant response rating, Nutsedge, Yellow ([9]; 31 g ai/ha): 0; Plant response rating, Nutsedge, Yellow ([9]; 62 g ai/ha): 0; Plant response rating (scale of 0 to 100), Chickweed ([10]; 16 g ai/ha): 0; Plant response rating (scale of 0 to 100), Chickweed ([10]; 31 g ai/ha): 0; Chickweed plant response rating ([10]; 62 g ai/ha, scale 0 to 100 (0 no effect, 100 complete control)): 0; Plant response rating, Chickweed ([10]; 125 g ai/ha, scale 0 to 100): 0
